Laboratory results published in patent US7799913B2, “Carbonylbenzoxazine compounds for enhancing glutamatergic synaptic responses” (Cortex Pharmaceuticals, Inc., priority 2001, dated 2010).

Key:
[1] = test system: AMPA receptor; test: steady-state current induced by glutamate in cortical neurons in primary culture; assay type: cell-based, rat; conditions: 300 μM glutamate on cultured neurons
Description: (§1) The physiological effects of invention compounds were tested in vitro on primary cultures of rat cortical neurons as described by Hamill, O P, et al. in Pflügers Arch 391: 85-100 (1981) or on slices of rat hippocampus according to the following procedure. Excitatory responses (field EPSPs) were measured in hippocampal slices, which were maintained in a recording chamber continuously perfused with artificial cerebrospinal fluid (ACSF). During a 15-30 minute interval, the perfusion medium was switched to one containing various concentrations of the test compounds. Responses collected immediately before and at the end of drug perfusion were superimposed in order to calculate the percent increase in EPSP amplitude.

[2] = test system: AMPA receptors; test: field EPSP amplitude in field CA1 of rat hippocampal slice; assay type: cell-based; conditions: rat hippocampal slice
Text: The field EPSP, (excitatory post-synaptic potential) recorded in field CA1 after stimulation of CA3 axons is known to be mediated by AMPA receptors, which are present in the synapses (Kessler et al., Brain Res. 560: 337-341 (1991)). Drugs that selectively block the receptor selectively block the field EPSP (Muller et al., Science, supra). […] These effects are mirrored in the field EPSP (see, for example, Staubli et al., Psychobiology, supra; Xiao et al., Hippocampus, supra; Staubli et al., Hippocampus 2: 4958 (1992)).
To obtain the data shown in Table I, a bipolar nichrome stimulating electrode was positioned in the dendritic layer (stratum radiatum) of the hippocampal subfield CA1 close to the border of subfield CA3, as described in Example 64. Current pulses (0.1 msec) through the stimulating electrode activate a population of the Schaffer-commissural (SC) fibers, which arise from neurons in the subdivision CA3 and terminate in synapses on the dendrites of CA1 neurons. Activation of these synapses causes them to release the transmitter glutamate. Glutamate binds to post-synaptic AMPA receptors, which then transiently open an associated ion channel and permit a sodium current to enter the postsynaptic cell. This current results in a voltage in the extracellular space (the field EPSP), which is recorded by a high impedance recording electrode positioned in the middle of the stratum radiatum of CA1.
The intensity of the stimulation current was adjusted to produce half-maximal EPSPs (typically about 1.5-2.0 mV). Paired stimulation pulses were given every 40 sec with an interpulse interval of 200 msec, as described further in Example 64.
Hippocampal slices were maintained in a recording chamber continuously perfused with artificial cerebrospinal fluid (ACSF). During 15-30 minute intervals, the perfusion medium was switched to one containing various concentrations of the test compounds. Responses collected immediately before and at the end of drug perfusion were superimposed in order to calculate the percent increase in EPSP amplitude.
as §1
To conduct these tests, the hippocampus was removed from anesthetized, 2 month old Sprague-Dawley rats and in vitro slices (400 μm thick) were prepared and maintained in an interface chamber at 35° C. using conventional techniques [see, for example, Dunwiddie and Lynch, J. Physiol. 276: 353-367 (1978)]. The chamber was constantly perfused at 0.5 mL/min with ACSF containing (in mM): NaCl 124, KCl 3, KH2PO4 1.25, MgSO4 2.5, CaCl2 3.4, NaHCO3 26, glucose 10 and L-ascorbate 2. A bipolar nichrome stimulating electrode was positioned in the dendritic layer (stratum radiatum) of the hippocampal subfield CA1 close to the border of subfield CA3.
Current pulses (0.1 msec) through the stimulating electrode activate a population of the Schaffer-commissural (SC) fibers, which arise from neurons in the subdivision CA3 and terminate in synapses on the dendrites of CA1 neurons. Activation of these synapses causes them to release the transmitter glutamate. Glutamate binds to the post-synaptic AMPA receptors, which then transiently open an associated ion channel and permit a sodium current to enter the postsynaptic cell. […]

melting point | Compound | EC2X: concentration of modulator required to double the steady state current [1] | AMP: concentration of modulator that increases the amplitude of the fEPSP by 10% [2]
236 to 237 °C | CCN1COc2cc3c(cc2C1=O)OCN(CC)C3=O [Example 21, 3,8-diethyl-2H,7H-1,3-oxazaperhydroino[5′,6′-4,5]benzo[e]1,3-oxazine-4,9-dione] | 1.8 µM | 10 µM
195 to 196 °C | CN1COc2cc3c(cc2C1=O)OC1CCCN1C3=O (racemic) [Example 22, (R,S)-3-methyl-2H,6aH-pyrrolidino[2″,1″-3′,2′]1,3-oxazino[5′,6′-4,5]benzo[e]1,3-oxazaperhydroine-4,10-dione] | 0.2 µM | 10 µM
 | O=C1c2cc3c(cc2OC2CCCN12)C(=O)N1OCCC1O3 [Example 46, (R,S), (R,S)-2H,3H,3aH,9aH--1,2-oxazolidino[3,2-b]pyrrolidino[2″,1″-3′,2′](1,3-oxazino)[5′,6′-5,4]benzo[e]1,3-oxazaperhydroine-6,12-dione] | 2.4 µM | 3 µM
 | CC1CCN(C(=O)c2ccc3c(c2)OC2CCCN2C3=O)CC1 (racemic) [Example 18, (R,S)-6-[(4-methylpiperidyl)carbonyl]-3aH-benzo[e]pyrrolidino[2,1-b]1,3-oxazin-9-one] | 4 µM | 100 µM
 | O=C1c2cc3nc4n(c(=O)c3cc2OC2CCCN12)CCC4 (racemic) [Example 6, (R,S)-6a-hydro-3aH-pyrrolidino[2,1-b]pyrrolidino[2′,1′-2,3]quinazolino[7,6-e]1,3-oxazaperhydroine-6,12-dione] | 1.4 µM | 100 µM
 | CCN1COc2cc(C(=O)C3CCCCC3)ccc2C1=O [Example 38, 7-(cyclohexylcarbonyl)-3-ethyl-2H-benzo[e]1,3-oxazaperhydroin-4-one] | 15 µM | 30 µM
 | O=C(c1ccc2c(c1)OC1CCCN1C2=O)N1CCCCC1 (racemic) [Example 5, (R,S)-6-(Piperidylcarbonyl)-3aH-benzo[e]pyrrolidino[2,1-b]1,3-oxazaperhydroin-9-one] | 2 µM | 10 µM
 | O=C1c2cc3c(cc2OCN1Cc1ccc2c(c1)OCO2)C(=O)N1CCCC1O3 (racemic) [Example 28, (R,S)-3-(2H-benzo[d]1,3-dioxolen-5-ylmethyl)-2H,6aH-pyrrolidino[2″,1″-3′,2′]1,3-oxazino[5′,6′-4,5]benzo[e]1,3-oxazaperhydroine-4,10-dione] | 6 µM | 10 µM
 | O=C1c2cc3c(cc2OC2CCCN12)C(=O)N1CCOC1O3 [Example 11, (R,S), (R,S)-2H,3H,12aH,6aH-1,3-oxazolidino[2,3-b]pyrrolidino[2″,1″-2′,3′](1,3-oxazino)[5′,6′-2,1]benzo[4,5-e]1,3-oxazaperhydroine-4,10-dione] | 0.09 µM | 1 µM
 | O=C1c2cc3c(cc2OC2CCCN12)OC1CCCN1C3=O [Example 2, (R,S), (R,S)-3aH,6aH-pyrrolidino[2,1-b]pyrrolidino[2″,1″-3′,2′](1,3-oxazino)[6′,5′-2,1]benzo[4,5-e]1,3-oxazaperhydroine-10,12-dione] | 2.6 µM | >10 µM
